Results as given in article PMC11207040, “Synthesis and Biological Studies of New Temporin A Analogs Containing Unnatural Amino Acids in Position 7” (Pharmaceutics, 2024).
≈ marks a conversion by molar mass, not a printed value. Where “and” joins values, the source holds several entries; their conditions need not be identical. Equal entries are not always repeated. Where two headings read alike, the source gives them in different places. Non-standard residues stand in square brackets, D forms with d. Residues, ends and D or L forms follow the SMILES beside them. Cit = NC(=O)NCCC[C@H](N)C(=O)O; Dap = NC[C@H](N)C(=O)O

Assays:
[1] = system: Bacillus subtilis NBIMCC 3562; type: cell-based; conditions: for Inhibition effect, B. subtilis 3562: zone of peptide over zone of antibiotic x 100; for Inhibition zone, B. subtilis 3562: 20 µL per disc, 24 h
Protocol: (§1) The parent peptide Temporin A and the novel analogs were subjected to tests against model strains Escherichia coli NBIMCC 8785, Bacillus subtilis NBIMCC 3562, Arthrobacter oxydans NBIMCC 9333, Pseudomonas aeruginosa NBIMCC 3700, and Candida albicans NBIMCC 74, for the assessment of their antimicrobial activity. The strains were acquired from the National Bank for Industrial Microorganisms and Cell Cultures (NBIMCC, Bulgaria). The strain E. coli 8785 was cultured in Luria-Bertani broth (LB, HiMedia, Mumbai, India); B. subtilis 3562—in nutrient broth (NB, HiMedia, Mumbai, India); A. oxydans 9333; P. aeruginosa 3700—in meat peptone agar (MPA) medium; and C. albicans 74—in yeast mold (YM) medium. An incubator shaker ES-20/60 (Biosan, Latvia) was used for the cultivation and was set to 30 °C for B. subtilis 3562, A. oxydans 9333, and C. albicans 74; and 37 °C for E. coli 8785 and P. aeruginosa 3700, with a 24 h shaking period at 120 rpm. The microbial cultures were then adjusted to a turbidity of 0.5 McFarland using a Grant-bio DEN-1B densitometer (Grant Instruments, Royston, UK) for further use.
(§2) The disk-diffusion method was used as an additional method, with the aim of determining the percent inhibition of the tested samples against the model strains. Sterile plates with LB/NB/MPA/YM agar medium were inoculated on the surface with 100 μL from each microbial culture and incubated at 30 or 37 °C for 30 min, for the suspension to penetrate the agar. After that, sterile paper discs (HiMedia, Mumbai, India) with a diameter of 6 mm were soaked with 20 µL of the peptide solutions with concentrations of 1.4 mg/mL and 10 mg/mL and placed on the agar surface. Sterile paper discs with 10% EtOH/H2O were used as a negative control, and the corresponding strain antibiotic disks (HiMedia, Mumbai, India)—as a positive control. The incubation of the plate was performed at 30/37 °C for 24 h. The antimicrobial activity was analyzed by measuring the diameter of the inhibition zones in mm. The experiments were conducted in triplicates, and the average values for the percent of inhibition as a correlation between the inhibition zone of the peptides over the inhibition zone of the antibiotic multiplied by 100 were calculated.

[2] = system: Arthrobacter oxydans NBIMCC 9333; type: cell-based; conditions: 24 h
Protocol: as §1
(§3) The minimal inhibitory concentration (MIC) of the peptides was determined using the broth dilution method. Stock solutions of the peptides with a concentration of 10 mg/mL in 10% EtOH/H2O were prepared. Suspensions of the bacteria in the corresponding media were added to 96-well U-shaped bottom polystyrene plates (Deltalab S.L., Spain) and exposed to the peptide in the concentration range from 0 to 320 µg/mL, and a 10% EtOH/H2O control, diluted using the same scheme as the peptides, was also used. The plates were then incubated under aerobic conditions at the corresponding temperature for 24 h. The MIC (µg/mL) was assumed as the lowest concentration of the antimicrobial, where there was visible inhibition of the strain. The absorbance was measured at 630 nm (Microplate reader PKL PPC 142, Paramedical srl, Salerno, Italy). To determine the minimal bactericidal concentration (MBC) and minimal fungicidal concentration (MFC), 10 μL from concentrations greater than or equal to the MIC was placed on the corresponding solid nutrient medium. The Petri dishes were then incubated at 30 or 37 °C for 24 h. All experiments were conducted in a triplicate.

[3] = system: Arthrobacter oxydans NBIMCC 9333; type: cell-based; conditions: for Inhibition effect, A. oxydans 9333: zone of peptide over zone of antibiotic x 100; for Inhibition zone, A. oxydans 9333: 20 µL per disc, 24 h
Protocol: as §1, §2

[4] = system: Candida albicans NBIMCC 74; type: cell-based; conditions: for Inhibition zone, C. albicans 74: 20 µL per disc, 24 h
Protocol: as §1, §2

[5] = system: Pseudomonas aeruginosa NBIMCC 3700; type: cell-based; conditions: for Inhibition effect, P. aeruginosa 3700: zone of peptide over zone of antibiotic x 100; for Inhibition zone, P. aeruginosa 3700: 20 µL per disc, 24 h
Protocol: as §1, §2

[6] = system: Escherichia coli NBIMCC 8785; type: cell-based; conditions: for Inhibition zone, E. coli 8785: 20 µL per disc, 24 h
Protocol: as §1, §2

[7] = system: MCF-7 cells; assay: MTT antiproliferative assay, MCF-7; type: cell-based, human; conditions: for IC50: MTT, 72 h, read-out: Mean IC50 ± SD, MCF-7; for SI (Selectivity Index), MCF-7: SI = IC50 MCF-12F/IC50 tumor cells
Protocol: (§4) The cell lines BALB 3T3 (mouse embryonic fibroblasts) and MCF-12F (human breast epithelial cells) were used as models for healthy tissue. The MCF-7 and MDA-MB-231 cell lines were used as in vitro models for luminal A- and basal B-type breast cancer, respectively. Cell lines were obtained from the American Type Cultures Collection (ATCC, Manassas, VA, USA). Cells were cultured in Dulbecco modified Eagle’s medium (DMEM) supplemented with 10% fetal bovine serum (FBS), 100 U/mL penicillin, and 0.1 mg/mL streptomycin (Sigma-Aldrich, Schnelldorf, Germany) in an incubator at 37 °C, 5% CO2 and 95% humidity. Plastic flasks 75 cm^2 (Biologix, Lenexa, KS, USA) were used to grow the cells.
(§5) The antiproliferative activity testing was performed on cell cultures using the MTT-dye reduction assay. This assay is based on the metabolism of MTT to insoluble formazan by mitochondrial reductases. The formazan concentration can be determined spectrophotometrically. The measured absorption is an indicator of cell viability. Cell lines (MCF-12F, MCF-7 and MDA-MB-231) were used in the experiments. Cells were plated at a density of 1 × 10^3 cells/100 µL in each well of 96-well microplates and allowed to adhere for 24 h before treatment with test compounds. A concentration range from 4 to 1000 μM was applied for 72 h. The formazan absorption was registered using a microplate reader at λ = 540 nm. Antiproliferative activities were expressed as IC50 values (concentrations required for 50% inhibition of cell growth).

[8] = system: MDA-MB-231 cells; assay: MTT antiproliferative assay, MDA-MB-231; type: cell-based, human; conditions: for IC50: MTT, 72 h, read-out: Mean IC50 ± SD, MDA-MB-231; for SI (Selectivity Index), MDA-MB-231: SI = IC50 MCF-12F/IC50 tumor cells
Protocol: as §4, §5

[9] = 3T3 NRU cytotoxicity/phototoxicity test; type: cell-based, mouse; conditions: mouse; for CC50: cytotoxicity, no irradiation, BALB 3T3 clone A31, Neutral Red uptake, read-out: Mean CC50 ± SD, −Irr; for CC50 at 24 h: phototoxicity, irradiated 2.4 J/cm^2, BALB 3T3 clone A31, Neutral Red uptake, read-out: Mean CC50 ± SD, +Irr
Protocol: as §4
(§6) The cytotoxicity/phototoxicity testing was performed as described by the OECD Guidelines for the Testing of Chemicals, Section 4, Test No. 432: In Vitro 3T3 NRU Phototoxicity Test. BALB 3T3, clone A31 cells were grown in 75 cm^2 tissue culture flasks in DMEM high-glucose (4.5 g/L), 10% FBS, and antibiotics at 37.5 °C, in a humidified atmosphere under 5% CO2. Cells were plated at 1 × 10^4 cells / 100 μL culture medium in each well of 96-well microplates and allowed to adhere for 24 h before treatment with test compounds. Peptides were dissolved in DMSO and diluted with culture medium to working concentrations from 4 to 1000 μM. In phototoxicity tests, 96-well plates were irradiated (+Irr) with a dose of 2.4 J/cm^2 using an artificial solar light simulator Helios-iO (SERIC Ltd., Tokyo, Japan), and the cells were incubated for an additional 24 h. After treatment with a Neutral Red medium, washing, and application of the NR Desorb solution, the absorption was measured on a microplate reader at a wavelength of 540 nm. Cytotoxicity/phototoxicity was expressed as CC50 values (concentrations required for 50% cytotoxicity).

[10] = system: BALB 3T3 clone A31 cells; assay: 3T3 NRU cytotoxicity/phototoxicity test; type: cell-based, mouse; conditions: PIF = CC50 −Irr/CC50 +Irr; PIF < 2 = not phototoxic
Protocol: as §4, §6

[11] = system: MCF-12F cells; assay: MTT antiproliferative assay, MCF-12F; type: cell-based, human; conditions: 72 h, non-tumorigenic cell line, read-out: Mean IC50 ± SD, MCF-12F
Protocol: as §4, §5

[12] = system: Bacillus subtilis NBIMCC 3562; type: cell-based; conditions: broth dilution, 0 to 320 µg/mL, 24 h; NI = no inhibition monitored
Protocol: as §1, §3

[13] = 10 µg/disk, positive control on the plate of the peptide of that line

| Compound | Inhibition effect, B. subtilis 3562 ([1]; 1.4 mg/mL) [%] | Inhibition effect, B. subtilis 3562 ([1]; 10 mg/mL) [%] | Inhibition zone, B. subtilis 3562 ([1]; peptide 1.4 mg/mL) [mm] | Inhibition zone, B. subtilis 3562 ([1]; peptide 10 mg/mL) [mm] | Inhibition effect, A. oxydans 9333 ([3]; 1.4 mg/mL) [%] | Inhibition effect, A. oxydans 9333 ([3]; 10 mg/mL) [%] | Inhibition zone, A. oxydans 9333 ([3]; peptide 1.4 mg/mL) [mm] | Inhibition zone, A. oxydans 9333 ([3]; peptide 10 mg/mL) [mm] | Inhibition zone, C. albicans 74 ([4]; peptide 1.4 mg/mL) [mm] | Inhibition zone, C. albicans 74 ([4]; peptide 10 mg/mL) [mm] | Inhibition effect, P. aeruginosa 3700 ([5]; 1.4 mg/mL) [%] | Inhibition effect, P. aeruginosa 3700 ([5]; 10 mg/mL) [%] | Inhibition zone, P. aeruginosa 3700 ([5]; peptide 1.4 mg/mL) [mm] | Inhibition zone, P. aeruginosa 3700 ([5]; peptide 10 mg/mL) [mm] | Inhibition zone, E. coli 8785 ([6]; peptide 1.4 mg/mL) [mm] | Inhibition zone, E. coli 8785 ([6]; peptide 10 mg/mL) [mm] | IC50 [7] [µM] | SI (Selectivity Index), MCF-7 [7] | IC50 [8] [µM] | SI (Selectivity Index), MDA-MB-231 [8] | other results |
| --- | --- | --- | --- | --- | --- | --- | --- | --- | --- | --- | --- | --- | --- | --- | --- | --- | --- | --- | --- | --- | --- |
| O=C(N[C@H](CO)[C@H](O)c1ccc([N+](=O)[O-])cc1)C(Cl)Cl [Chloramphenicol, reference compound] | – | – | – | – | – | – | – | – | – | – | – | – | – | – | – | – | – | – | – | – | Inhibition zone, B. subtilis 3562, antibiotic control ([1]; 30 µg/disk, positive control on the plate of the peptide of that line): 26.0 mm and 25.0 mm |
| CC[C@H](C)[C@H](NC(=O)CNC(=O)[C@H](CO)NC(=O)[C@H](CC(C)C)NC(=O)[C@@H](NC(=O)[C@H](CCCNC(N)=O)NC(=O)CNC(=O)[C@@H](NC(=O)[C@H](CC(C)C)NC(=O)[C@@H]1CCCN1C(=O)[C@H](CC(C)C)NC(=O)[C@@H](N)Cc1ccccc1)[C@@H](C)CC)C(C)C)C(=O)N[C@@H](CC(C)C)C(N)=O [DTCit, FLPLIG-Cit-VLSGIL-NH2] (H-FLPLIG[Cit]VLSGIL-NH2; N-terminus assumed) | 0.0 | 0.0 | 0.0 | 0.0 | 0.0 | 0.0 | 0.0 | 0.0 | 0.0 | 0.0 | 0.0 | 0.0 | 0.0 | 0.0 | 0.0 | 0.0 | 150 ± 6.94 | 2.01 | 335 ± 4.37 | 0.90 | MIC, A. oxydans 9333 ([2]; broth dilution, 0 to 320 µg/mL, NI = no inhibition monitored): 160 µg/mL (≈ 114 µM); MBC, A. oxydans 9333 ([2]; plated from concentrations ≥ MIC): 160 µg/mL (≈ 114 µM); CC50 [9]: 356 ± 7.64 µM; CC50 at 24 h [9]: 332 ± 12.3 µM; PIF (photo irritation factor) [10]: 1.07; IC50 [11]: 301 ± 10.5 µM |
| CC[C@H](C)[C@H](NC(=O)CNC(=O)[C@H](CO)NC(=O)[C@H](CC(C)C)NC(=O)[C@@H](NC(=O)[C@H](CN)NC(=O)CNC(=O)[C@@H](NC(=O)[C@H](CC(C)C)NC(=O)[C@@H]1CCCN1C(=O)[C@H](CC(C)C)NC(=O)[C@@H](N)Cc1ccccc1)[C@@H](C)CC)C(C)C)C(=O)N[C@@H](CC(C)C)C(N)=O [DTDap, FLPLIG-Dap-VLSGIL-NH2] (H-FLPLIG[Dap]VLSGIL-NH2; N-terminus assumed) | 0.0 | 0.0 | 0.0 | 0.0 | 0.0 | 53.0 | 0.0 | 9.8 ± 0.3 | 0.0 | 0.0 | 0.0 | 51.8 | 0.0 | 8.8 ± 0.8 | 0.0 | 0.0 | 473 ± 16.2 | 1.33 | 581 ± 17.5 | 1.09 | MIC, B. subtilis 3562 [12]: 320 µg/mL (≈ 241 µM); CC50 [9]: 924 ± 21.6 µM; CC50 at 24 h [9]: 933 ± 20.7 µM; PIF (photo irritation factor) [10]: 0.99; IC50 [11]: 630 ± 9.97 µM |
| CNC(C)C1CCC(N)C(OC2C(N)CC(N)C(OC3OCC(C)(O)C(NC)C3O)C2O)O1 (stereo not shown) [Gentamicin, reference compound] | – | – | – | – | – | – | – | – | – | – | – | – | – | – | – | – | – | – | – | – | Inhibition zone, P. aeruginosa 3700, antibiotic control [5, 13]: 17.0 mm and 16.0 mm; Inhibition zone, E. coli 8785, antibiotic control [6, 13]: 18.0 mm |
| CCC(C)n1ncn(-c2ccc(N3CCN(c4ccc(OCC5COC(Cn6cncn6)(c6ccc(Cl)cc6Cl)O5)cc4)CC3)cc2)c1=O (stereo not shown) [Itraconazole, reference compound] | – | – | – | – | – | – | – | – | – | – | – | – | – | – | – | – | – | – | – | – | Inhibition zone, C. albicans 74, antibiotic control [4, 13]: 15.0 mm and 14.0 mm |
